What was measured:
[1] = test system: rat CIA model; test: Arthritis index (AI) of extremities in rat CIA model; settings: CIA rats; for Arthritis index/Day: score 0-16;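 for all read-outs here: rats immunized with type II collagen plus complete Freund's adjuvant on day 0, boosted day 7, groups of 8, each paw graded 0-4 for swelling or redness, higher means worse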
Protocol: Lewis rats (female, 10-12 weeks old) were obtained from Beijing Vital River Laboratory Animal Technology Co., Ltd. The rats were on a light and dark alternation for 12 h, and the environment was kept at a temperature of 23±2° C. and a humidity of 40-70%.
Type II collagen solution (2 mg/mL) was prepared with 0.05 M acetic acid solution to allow to be fully dissolved, and placed overnight in the dark at 4° C. During the test, 2 mg/mL type II collagen (C II) solution and 4 mg/mL complete Freund's adjuvant (CFA) solution were mixed in equal volumes under ice bath conditions to fully emulsify. On day 0, an emulsion prepared by mixing equal volumes of C II (2 mg/mL) and CFA (4 mg/mL) was injected intracutaneously into the base of the tail of experimental rats for primary immunization, and on day 7, secondary booster immunization was performed.
The therapeutic effect of the test compound was tested in a rat CIA model. The rats were randomly divided into groups with 8 animals in each group. All animals were immunized on day 0 and boosted on day 7.
Foot volume was scored for the swelling of four toes at the same time, the score for each foot was 0-4, and the highest score for each rat was 16. 0—no swelling, normal appearance; 1—mild swelling or redness of the ankle joint, wrist joint or finger joint; 2—moderate swelling or redness of the ankle joint, wrist joint or finger joint; 3—severe swelling or redness of the ankle joint, wrist joint or finger joint; 4—very severe swelling or redness of the ankle joint, wrist joint or finger joint.

[2] = test system: rat CIA model; test: Hindfoot foot volume in rat CIA model; assay type: in vivo, Lewis rats; settings: CIA rats; for Foot volume (ml)/Day: hindfoot
[3] = test system: main human CYP molecular species (CYP1A2, 2B6, 2C8, 2C9, 2C19, 2D6 and 3A4); test: CYP inhibition test in mixed human liver microsomes; assay type: in vitro ADME
Protocol: Commercially available mixed human liver microsomes were used for the typical substrate metabolism reaction of the main human CYP molecular species (CYP1A2, 2B6, 2C8, 2C9, 2C19, 2D6 and 3A4). The reaction conditions were as follows: substrate, CYP1A2: 30 μM of phenacetin; CYP2C9: diclofenac 10 μM; CYP2C19: 35 μM of S-methphenytoin; CYP3A4: midazolam 5 μM, testosterone 80 μM; CYP2D6: bufuralol, 10 μM; CYP2C8: 10 μM of paclitaxel; and CYP2B6: bupropion 70 μM; reaction time, CYP1A2, 2C9, 2D6, 2C8, 2B6: 10 min; CYP2C19: 45 min; and CYP3A4: 5 min. Reaction temperature, 37° C. Inhibitor (positive control), CYP1A2: α-naphthoflavone; CYP2C9: sulfaphenazole; CYP2C19: omeprazole; CYP3A4: ketoconazole; CYP2D6: quinidine; CYP2C8: nicardipine; and CYP2B6: clopidogrel.
A series of dilutions for the test compound and the positive control were prepared in a 96-well plate, and 8 μL of 10 mM test compound was transferred to 12 μL of ACN. 1:3 serial dilution was performed in a DMSO:ACN mixture (v/v: 40:60). HLM was added to assay wells, and then the test compound or a reference inhibitor solution diluted with serum was added to the designated wells on ice. After the 96-well plate and NADPH solution was pre-incubated at 37° C. for 5 min, 15 μL of the pre-warmed 8 mM NADPH solution was added to the assay plate to start the reaction. […]

[4] = Pharmacokinetic study; assay type: in vivo; settings: rat, plasma; rats, oral, 1-10 mg/kg
Protocol: For the intravenous route and the oral route, the compound was formulated in an aqueous solution containing 5% DMSO+95% hydroxypropyl-β-cyclodextrin. Test animals were administered orally at 1-10 mg/kg and intravenously at 1-5 mg/kg. Each group included 3 rats. About 0.2 mL of blood was collected by jugular vein puncture with heparin sodium anticoagulant at the following time points: 0.083 h, 0.25 h, 0.5 h, 1 h, 2 h, 4 h, 6 h, 8 h, 10 h and 24 h. Plasma was separated by centrifugation at 5000-13000 rpm for 10 min within 1 hour after collecting the blood sample, and the plasma sample was analyzed on LC-MS/MS.
The pharmacokinetic parameters were calculated using Phoenix WinNonlin 7.0 based on blood drug concentration data at different time points to provide parameters such as AUC0-t, AUC0-∞, MRT0-∞, Cmax, Tmax, and T1/2.

[5] = 2 mg/kg oral gavage once daily for 2 w, day 0
[6] = 2 mg/kg oral gavage once daily for 2 w, day 8
[7] = 2 mg/kg oral gavage once daily for 2 w, day 11
[8] = 2 mg/kg oral gavage once daily for 2 w, day 14
[9] = 2 mg/kg oral gavage once daily for 2 w, day 17
[10] = 2 mg/kg oral gavage once daily for 2 w, day 21
[11] = 2 mg/kg oral gavage once daily for 2 w, day 24
[12] = 2 mg/kg oral gavage once daily for 2 w, day 28
[13] = 3 mg/kg oral gavage once daily for 2 w, day 0
[14] = 3 mg/kg oral gavage once daily for 2 w, day 8
[15] = 3 mg/kg oral gavage once daily for 2 w, day 11
[16] = 3 mg/kg oral gavage once daily for 2 w, day 14
[17] = 3 mg/kg oral gavage once daily for 2 w, day 17
[18] = 3 mg/kg oral gavage once daily for 2 w, day 21
[19] = 3 mg/kg oral gavage once daily for 2 w, day 24
[20] = 3 mg/kg oral gavage once daily for 2 w, day 28
[21] = 5 mg/kg oral gavage once daily for 2 w, day 0
[22] = 5 mg/kg oral gavage once daily for 2 w, day 11
[23] = 5 mg/kg oral gavage once daily for 2 w, day 14
[24] = 5 mg/kg oral gavage once daily for 2 w, day 17
[25] = 5 mg/kg oral gavage once daily for 2 w, day 21
[26] = 5 mg/kg oral gavage once daily for 2 w, day 24
[27] = 5 mg/kg oral gavage once daily for 2 w, day 28
[28] = 10 mg/kg oral gavage once daily for 2 w, day 0
[29] = 10 mg/kg oral gavage once daily for 2 w, day 8
[30] = 10 mg/kg oral gavage once daily for 2 w, day 11
[31] = 10 mg/kg oral gavage once daily for 2 w, day 14
[32] = 10 mg/kg oral gavage once daily for 2 w, day 17
[33] = 10 mg/kg oral gavage once daily for 2 w, day 21
[34] = 10 mg/kg oral gavage once daily for 2 w, day 24
[35] = 10 mg/kg oral gavage once daily for 2 w, day 28

O=C(Nc1cn2c(-c3ccc(CN4CCS(=O)(=O)CC4)s3)cccc2n1)[C@H]1C[C@@H]1F (relative stereo) [EXP-3, trans-N-[5-[5-[(1,1-dioxo-1,4-thiazin-4-yl)methyl]-2-thiophene]imidazo[1,2-a]pyridin-2-yl]-2-fluoro-cyclopropylcarboxamide]
Arthritis index/Day [1, 5]: 0 ± 0
Arthritis index/Day [1, 6]: 0 ± 0
Arthritis index/Day [1, 7]: 0.50 ± 0.33
Arthritis index/Day [1, 8]: 3.63 ± 0.91
Arthritis index/Day [1, 9]: 6.25 ± 1.36
Arthritis index/Day [1, 10]: 9.00 ± 1.24
Arthritis index/Day [1, 11]: 9.13 ± 1.04
Arthritis index/Day [1, 12]: 8.63 ± 0.63
Arthritis index/Day [1, 13]: 0 ± 0
Arthritis index/Day [1, 14]: 0 ± 0
Arthritis index/Day [1, 15]: 0.38 ± 0.18
Arthritis index/Day [1, 16]: 3.75 ± 0.70
Arthritis index/Day [1, 17]: 6.25 ± 0.75
Arthritis index/Day [1, 18]: 10.25 ± 0.70
Arthritis index/Day [1, 19]: 10.88 ± 0.44
Arthritis index/Day [1, 20]: 9.25 ± 0.45
Arthritis index/Day [1, 21]: 0 ± 0
Arthritis index/Day ([1]; 5 mg/kg oral gavage once daily for 2 w, day 8): 0 ± 0
Arthritis index/Day [1, 22]: 0.63 ± 0.26
Arthritis index/Day [1, 23]: 3.50 ± 0.76
Arthritis index/Day [1, 24]: 5.88 ± 1.22
Arthritis index/Day [1, 25]: 9.00 ± 1.22
Arthritis index/Day [1, 26]: 9.13 ± 1.04
Arthritis index/Day [1, 27]: 8.00 ± 0.65
arthritis index, relative effect on swelling of the extremities in words ([1]; 10 mg/kg): strongest effect on reducing swelling of the extremities
Arthritis index/Day [1, 28]: 0 ± 0
Arthritis index/Day [1, 29]: 0 ± 0
Arthritis index/Day [1, 30]: 0.38 ± 0.38
Arthritis index/Day [1, 31]: 3.75 ± 0.70
Arthritis index/Day [1, 32]: 5.00 ± 0.89
Arthritis index/Day [1, 33]: 6.50 ± 0.50
Arthritis index/Day [1, 34]: 7.25 ± 0.56
Arthritis index/Day [1, 35]: 7.25 ± 0.41
foot volume, relative potency in words ([2]; 10 mg/kg): the most potent and significantly stronger than filgotinib 10 mg/kg
Foot volume (ml)/Day [2, 5]: 2.603 ± 0.021 mL
Foot volume (ml)/Day [2, 6]: 2.590 ± 0.027 mL
Foot volume (ml)/Day [2, 7]: 2.634 ± 0.059 mL
Foot volume (ml)/Day [2, 8]: 3.648 ± 0.303 mL
Foot volume (ml)/Day [2, 9]: 4.465 ± 0.261 mL
Foot volume (ml)/Day [2, 10]: 4.600 mL
Foot volume (ml)/Day [2, 11]: 4.487 mL
Foot volume (ml)/Day [2, 12]: 4.181 mL
Foot volume (ml)/Day [2, 13]: 2.633 ± 0.017 mL
Foot volume (ml)/Day [2, 14]: 2.624 ± 0.010 mL
Foot volume (ml)/Day [2, 15]: 2.706 ± 0.037 mL
Foot volume (ml)/Day [2, 16]: 3.724 ± 0.239 mL
Foot volume (ml)/Day [2, 17]: 4.759 ± 0.291 mL
Foot volume (ml)/Day [2, 18]: 4.863 mL
Foot volume (ml)/Day [2, 19]: 4.754 mL
Foot volume (ml)/Day [2, 20]: 4.299 mL
Foot volume (ml)/Day [2, 21]: 2.631 ± 0.017 mL
Foot volume (ml)/Day [2, 22]: 2.703 ± 0.061 mL
Foot volume (ml)/Day [2, 23]: 3.684 ± 0.315 mL
Foot volume (ml)/Day [2, 24]: 4.516 ± 0.302 mL
Foot volume (ml)/Day [2, 25]: 4.724 mL
Foot volume (ml)/Day [2, 26]: 4.582 mL
Foot volume (ml)/Day [2, 27]: 4.176 mL
Foot volume (ml)/Day [2, 28]: 2.645 ± 0.017 mL
Foot volume (ml)/Day [2, 29]: 2.613 ± 0.017 mL
Foot volume (ml)/Day [2, 30]: 2.647 ± 0.075 mL
Foot volume (ml)/Day [2, 31]: 3.652 ± 0.287 mL
Foot volume (ml)/Day [2, 32]: 4.249 ± 0.342 mL
Foot volume (ml)/Day [2, 33]: 4.331 mL
Foot volume (ml)/Day [2, 34]: 4.125 mL
Foot volume (ml)/Day [2, 35]: 3.826 mL
CYP inhibition [3]: no inhibitory effect

O=C(Nc1nc2cccc(-c3ccc(CN4CCS(=O)(=O)CC4)s3)n2n1)C1CC1 [EXP-1]
AUC [4]: 12000 ng·h/mL
Cmax [4]: 2630 ng/mL
half-life [4]: 2.68 h

— patent US20220274983A1, “JAK KINASE INHIBITOR AND USE THEREOF” (JIANGSU CAREPHAR PHARMACEUTICAL CO., LTD., priority 2019, published 2022)
